Our source for the TGI values is PubChem BioAssay (NCI).

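Values below derive from 48-hour exposures of cells grown in 96-well plates, with endpoints linearly interpolated between the two concentrations bracketing the appropriate inhibition level. TGI: concentration producing complete growth inhibition.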 A value given as a limit tells only on which side of the number the result lay.

Test systems include TK-10 renal; RPMI-8226 leukemia; LOX IMVI melanoma; CAKI-1 renal; NCI-H522 lung; SK-MEL-5 melanoma; UACC-62 melanoma; K-562 leukemia.
What all share (test): growth of human tumour cells (NCI), 48 h

In the case of `CC1CC(N)=Nc2ccccc2N1` (stereo not drawn), the TGI in the test with TK-10 renal, in the test with RPMI-8226 leukemia, in the test with LOX IMVI melanoma, in the test with CAKI-1 renal, in the test on NCI-H522 lung and in the test on SK-MEL-5 melanoma was above 100 µM in each case. The TGI in the test on UACC-62 melanoma and in the test with K-562 leukemia was above 100 µM each time.

Consider `C=C1CC(c2ccc(OCCCN3C(=O)c4ccccc4C3=O)c(OC)c2)OC1=O` (stereo not drawn), for which the TGI is 10.8 µM in the test with TK-10 renal; 6.69 µM in the test on RPMI-8226 leukemia; 4.53 µM in the test on LOX IMVI melanoma; 5.16 µM in the test on CAKI-1 renal; 1.54 µM in the test with NCI-H522 lung; 23.2 µM in the test with SK-MEL-5 melanoma. Further, the TGI was 10.2 µM with UACC-62 melanoma and 2.68 µM in the test with K-562 leukemia.

Consider `CCc1nc(N)nc(N)c1-c1ccc2nn(-c3ccccc3)[n+]([O-])c2c1`, for which the TGI was determined as 55.6 µM in the test on TK-10 renal; 35.7 µM with RPMI-8226 leukemia; 17.7 µM in the test with LOX IMVI melanoma; 18.2 µM with CAKI-1 renal; 11.6 µM in the test on NCI-H522 lung; 19.6 µM with SK-MEL-5 melanoma. For the same compound, the TGI in the test with UACC-62 melanoma is 17.5 µM; with K-562 leukemia, 22.9 µM.

In the case of `O=[N+]([O-])c1ccc(/C=N/n2c(CO)nc3ccccc32)o1`, the TGI turned out to be 19.2 µM in the test with TK-10 renal; 19.6 µM in the test on RPMI-8226 leukemia; 15.9 µM with LOX IMVI melanoma; 24.8 µM in the test with CAKI-1 renal; 4.43 µM with NCI-H522 lung; 6.78 µM in the test on SK-MEL-5 melanoma. Also, the TGI in the test with UACC-62 melanoma turned out to be 21.9 µM; in the test on K-562 leukemia, 62.7 µM.

For the compound `CC(=O)n1nc(-c2ccccc2)n(/N=C/c2ccc([N+](=O)[O-])cc2)c1=O`, the TGI in the test with TK-10 renal, with RPMI-8226 leukemia, in the test on LOX IMVI melanoma, with CAKI-1 renal, in the test on NCI-H522 lung and in the test with SK-MEL-5 melanoma was above 100 µM each time. In addition, the TGI with UACC-62 melanoma and in the test on K-562 leukemia was above 100 µM each time.

As to `CCC1(CC)SCc2nc3ccccc3n21`, the TGI in the test with TK-10 renal was above 100 µM; in the test on RPMI-8226 leukemia, 65.7 µM; in the test with LOX IMVI melanoma it was above 100 µM; with CAKI-1 renal, 95.7 µM; with NCI-H522 lung, 94.4 µM; with SK-MEL-5 melanoma it was 36.5 µM. In addition, the TGI in the test on UACC-62 melanoma is above 100 µM; in the test with K-562 leukemia, 74.5 µM.

`CC(=O)NC1C(OCc2ccccc2)OC(CO)C(O)C1OC(C)C(=O)NC(C)C(=O)NC(CCC(=O)NCCCNc1c2ccccc2nc2cccc([N+](=O)[O-])c12)C(N)=O` (stereo not drawn): the TGI was 9.97 µM in the test with TK-10 renal; above 100 µM in the test on RPMI-8226 leukemia; 27.7 µM in the test with LOX IMVI melanoma; 7.87 µM in the test on CAKI-1 renal; 4.05 µM with NCI-H522 lung; 2.47 µM in the test with SK-MEL-5 melanoma. In addition, the TGI in the test with UACC-62 melanoma came out at 3.82 µM; with K-562 leukemia it was 11.1 µM.

Turning to `CCCCCCCCCCCCCCCCCCNc1ccn(C2OC(COP(=O)(O)OCC3OC(n4cc(C)c(=O)[nH]c4=O)CC3O)C(O)C2O)c(=O)n1` (stereo not drawn), the TGI amounted to 22.3 µM in the test on TK-10 renal; 37.3 µM in the test with RPMI-8226 leukemia; 31.9 µM in the test on LOX IMVI melanoma; 33.2 µM in the test on CAKI-1 renal; 30.3 µM in the test on NCI-H522 lung; 28.1 µM with SK-MEL-5 melanoma. Besides, the TGI in the test on UACC-62 melanoma came out at 33.8 µM; in the test on K-562 leukemia, 50.2 µM.

For the compound `COC(=O)C(C)(NC(=O)C(CC(=O)OC(C)(C)C)NC(=O)OC(C)(C)C)c1ccccc1` (stereo not drawn), the TGI with TK-10 renal, in the test with RPMI-8226 leukemia, with LOX IMVI melanoma, with CAKI-1 renal, with NCI-H522 lung and with SK-MEL-5 melanoma was above 100 µM in each case. Moreover, the TGI in the test with UACC-62 melanoma and in the test on K-562 leukemia was above 100 µM in each case.

`O=Cc1ccc2c(c1)CC1(C2)Cc2ccc3c(c2C1)CCC3` (stereo not drawn): the TGI in the test with TK-10 renal is 40.5 µM; with RPMI-8226 leukemia, 27.9 µM; in the test on LOX IMVI melanoma, 15.9 µM; in the test on CAKI-1 renal, 46.8 µM; in the test on NCI-H522 lung, above 83.6 µM; in the test with SK-MEL-5 melanoma, 15.9 µM. The TGI in the test with UACC-62 melanoma was determined as 18.8 µM; in the test with K-562 leukemia, 25.6 µM.

For the compound `O=[N+]([O-])c1cc2oc(COc3ccccc3)nc2cc1Cl`, the TGI with TK-10 renal is above 100 µM; in the test on RPMI-8226 leukemia, above 100 µM; in the test with LOX IMVI melanoma, 35 µM; in the test on CAKI-1 renal it was 67.6 µM; in the test on NCI-H522 lung it was 46.3 µM; in the test on SK-MEL-5 melanoma, 25.5 µM. The TGI was 41.4 µM with UACC-62 melanoma and above 100 µM in the test with K-562 leukemia.

Consider `COc1ccc2nc3ccc(OC)cc3c(S(=O)CCCl)c2c1` (stereo not drawn), for which the TGI in the test with TK-10 renal was determined as 8.26 µM; with RPMI-8226 leukemia, 4.9 µM; in the test on LOX IMVI melanoma, 6.81 µM; with CAKI-1 renal, 6.9 µM; in the test with NCI-H522 lung it was 3.23 µM; with SK-MEL-5 melanoma, 28.2 µM. For the same compound, the figures for the TGI with UACC-62 melanoma and in the test on K-562 leukemia were 32.1 µM and above 23.6 µM, respectively.

For `O=c1[nH]c(-c2ccc3ccccc3c2)nc2ccccc12`, the TGI in the test with TK-10 renal is 13.4 µM; in the test on RPMI-8226 leukemia, above 100 µM; with LOX IMVI melanoma it was above 100 µM; with CAKI-1 renal, above 100 µM; with NCI-H522 lung it was above 100 µM; with SK-MEL-5 melanoma, above 100 µM. Besides, the TGI in the test on UACC-62 melanoma and with K-562 leukemia was above 100 µM throughout.

With `CC(C)(Cc1ccccc1)NC1=NCCO1`, the TGI in the test with TK-10 renal, with RPMI-8226 leukemia, with LOX IMVI melanoma, with CAKI-1 renal, in the test on NCI-H522 lung and with SK-MEL-5 melanoma was above 100 µM throughout. The TGI with UACC-62 melanoma and in the test with K-562 leukemia was above 100 µM in each case.

Take `NC(Cc1cccc([N+](=O)[O-])c1)C(=O)O` (stereo not drawn): the TGI in the test on TK-10 renal, with RPMI-8226 leukemia, in the test with LOX IMVI melanoma, with CAKI-1 renal, in the test with NCI-H522 lung and in the test with SK-MEL-5 melanoma was above 100 µM each time. Further, the TGI in the test on UACC-62 melanoma and with K-562 leukemia was above 100 µM each time.

For the compound `CS(=O)(=O)Nc1ccc(N2Cc3cnc4ccc5[nH]ccc2c5c34)cc1`, the TGI with TK-10 renal was 89.1 µM; in the test on RPMI-8226 leukemia it was 48.1 µM; with LOX IMVI melanoma it was 28.2 µM; with CAKI-1 renal, above 100 µM; with NCI-H522 lung, 29.5 µM; with SK-MEL-5 melanoma it was 29 µM. For the same compound, the TGI in the test on UACC-62 melanoma is 35.9 µM; in the test on K-562 leukemia it was 38.7 µM.
